The text below walks through data of patent US8859571B2, “Quinazoline compounds” (GlaxoSmithKline LLC, priority 2009, dated 2014).

Where “and” joins values, the source holds several entries; their conditions need not be identical. Equal values may be shown once. Where a name gives a salt, the structure may show the parent alone.

The assay addresses T1, Full length human TNNI3K (hTNNI3K) (Homo sapiens, UniProt Q59H18).
T1 construct: His-MBP-TEV-Full length human TNNI3K (hTNNI3K); His (N); MBP (N); TEV cleavage site (N); made in house; host or cells: baculovirus system (printed 'Baculokinase system')
T1 sequence (Q59H18 1-835): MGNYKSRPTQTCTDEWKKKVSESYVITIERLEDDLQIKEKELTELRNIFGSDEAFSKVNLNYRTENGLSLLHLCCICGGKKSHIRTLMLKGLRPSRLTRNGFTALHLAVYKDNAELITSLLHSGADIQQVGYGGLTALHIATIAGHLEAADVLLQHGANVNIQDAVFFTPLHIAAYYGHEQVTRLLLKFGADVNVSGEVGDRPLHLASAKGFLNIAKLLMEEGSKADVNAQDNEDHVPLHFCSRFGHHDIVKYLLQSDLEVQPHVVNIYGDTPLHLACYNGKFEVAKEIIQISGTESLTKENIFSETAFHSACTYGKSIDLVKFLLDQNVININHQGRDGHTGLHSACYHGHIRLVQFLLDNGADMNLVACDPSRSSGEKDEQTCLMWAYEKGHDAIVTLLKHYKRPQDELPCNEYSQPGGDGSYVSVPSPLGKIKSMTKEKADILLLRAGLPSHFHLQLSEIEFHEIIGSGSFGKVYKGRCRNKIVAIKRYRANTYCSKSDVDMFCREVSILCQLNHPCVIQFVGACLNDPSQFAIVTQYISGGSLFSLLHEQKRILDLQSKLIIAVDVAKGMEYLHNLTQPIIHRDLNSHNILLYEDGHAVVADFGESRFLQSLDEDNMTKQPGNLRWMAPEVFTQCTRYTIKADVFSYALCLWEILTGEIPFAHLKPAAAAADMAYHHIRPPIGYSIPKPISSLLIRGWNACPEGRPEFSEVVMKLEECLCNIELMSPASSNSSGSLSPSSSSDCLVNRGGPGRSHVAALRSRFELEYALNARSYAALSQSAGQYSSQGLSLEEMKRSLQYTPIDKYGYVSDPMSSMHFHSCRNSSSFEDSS
In words: Fluorescent polarization assay of compound inhibition on hTNNI3K ATP binding (Biological Assay Method I). Conditions: displacement of fluorescent ligand from hTNNI3K ATP binding pocket; mean of a minimum of 2 experiments; read-out: pXC50 (the source's name) (converted). From the text:
Materials: His-MBP-TEV-Full length human TNNI3K (hTNNI3K) was expressed in Baculokinase system and purified from amylase affinity column followed by Superdex200. The fluorescent ligand 5-({[2-({[3-({4-[(5-hydroxy-2-methylphenyl)amino]-2-pyrimidinyl}amino)phenyl]carbonyl}amino)ethyl]amino}carbonyl)-2-(6-hydroxy-3-oxo-3H-xanthen-9-yl)benzoic acid was used. The preparation of this fluorescent ligand is disclosed in U.S. Provisional Patent Application No. 61/237,815 filed Aug. 28, 2009, the disclosure of which is incorporated by reference herein. The other buffer components, including MgCl2 (Catalog Number M1028), Bis-Tris (Catalog Number B7535), DTT (Catalog Number D9779) and Chaps (Catalog Number C3023) were purchased from Sigma-Aldrich.
Biological Assay Method I:
A fluorescent polarization assay was used to determine does response of compound inhibition on hTNNI3K ATP binding.
Solution 1: Ten (10) mL of a 5 nM 5-({[2-({[3-({4-[(5-hydroxy-2-methylphenyl)amino]-2-pyrimidinyl}amino)phenyl]carbonyl}amino)ethyl]amino}carbonyl)-2-(6-hydroxy-3-oxo-3H-xanthen-9-yl)benzoic acid solution (Solution 1) was prepared by mixing 5 μL of 1M DTT and 80 μL of 10% (w/v) Chaps and 5 μL of a 10 μM 5-({[2-({[3-({4-[(5-hydroxy-2-methylphenyl)amino]-2-pyrimidinyl}amino)phenyl]carbonyl}amino) ethyl]amino}carbonyl)-2-(6-hydroxy-3-oxo-3H-xanthen-9-yl)benzoic acid stock solution into 9910 μL buffer (20 mM Tris, 15 mM MgCl2, pH 7.5). (Stock solution: 10 μM solution of 5-({[2-({[3-({4-[(5-hydroxy-2-methylphenyl)amino]-2-pyrimidinyl}amino)phenyl]carbonyl}amino)ethyl]amino}carbonyl)-2-(6-hydroxy-3-oxo-3H-xanthen-9-yl)benzoic acid in 100% DMSO)
Solution 2 was formed by mixing 53.8 μL of 2.6 μM hTNNI3K with a 6946.2 μL aliquot of Solution 1 (the above 5-({[2-({[3-({4-[(5-hydroxy-2-methylphenyl)amino]-2-pyrimidinyl}amino)phenyl]carbonyl}amino)ethyl]amino}carbonyl)-2-(6-hydroxy-3-oxo-3H-xanthen-9-yl)benzoic acid solution) to make up a 7 mL of mixture of hTNNI3K and 5-({[2-({[3-({4-[(5-hydroxy-2-methylphenyl)amino]-2-pyrimidinyl}amino)phenyl]carbonyl}amino)ethyl]amino}carbonyl)-2-(6-hydroxy-3-oxo-3H-xanthen-9-yl)benzoic acid (Solution 2).
Fifty (50) nL of inhibitors in DMSO (or DMSO controls) were stamped into a 384-well low volume Greiner black plate, followed by addition of 5 μL of Solution 1 to column 18 and 5 μL Solution 2 to columns 1-17 and 19-24 of the plate. The plate was then spun at 500 rpm for 30 seconds and incubated at room temperature for 60 minutes. After that, the fluorescent polarization was measured on Analyst (ex/em: 485/530 nm, Dichroic: 505). For dose response experiments, normalized data were fit by ABASE/XC50 and pXC50=(log((b−y)/(y−a)))/d−log(x), where x is the compound concentration and y is the % activity at specified compound concentration, a is the minimum % activity, b is the maximum % activity, and d is the Hill slope.
The pXC50s are averaged to determine a mean value, for a minimum of 2 experiments.
In the case of `CNS(=O)(=O)c1ccc(OC(C)C(F)(F)F)c(Nc2ncnc3cc(OC)cc(OC)c23)c1` (centres unmarked) [Example 49, 3-{[5,7-bis(methyloxy)-4-quinazolinyl]amino}-N-methyl-4-[(2,2,2-trifluoro-1-methylethyl)oxy] benzenesulfonamide trifluoroacetate], the IC50 was 1 to 10 nM.
With `CNS(=O)(=O)c1cc(Nc2ncnc3cc(OC)cc(OC)c23)c(OCC(F)(F)F)cc1F` [Example 50, 5-{[5,7-bis(methyloxy)-4-quinazolinyl]amino}-2-fluoro-N-methyl-4-[(2,2,2-trifluoroethyl)oxy] benzenesulfonamide trifluoroacetate], the IC50 was 10 to 100 nM.
The figure for `CNS(=O)(=O)c1cc(Nc2ncnc3cc(OC)cc(OC)c23)c(OC)cc1F` [Example 51, 5-{[5,7-bis(methyloxy)-4-quinazolinyl]amino}-2-fluoro-N-methyl-4-(methyloxy) benzenesulfonamide trifluoroacetate] is 10 to 100 nM.
`CNS(=O)(=O)c1ccc(SC)c(Nc2ncnc3cc(OC)cc(OC)c23)c1` [Example 53, 3-{[5,7-bis(methyloxy)-4-quinazolinyl]amino}-N-methyl-4-(methylthio) benzenesulfonamide hydrochloride]: the IC50 is 10 to 100 nM.
The figure for `CNS(=O)(=O)c1ccc(OC(F)(F)F)c(Nc2ncnc3cc(OC)cc(OC)c23)c1` [Example 54, 3-{[5,7-bis(methyloxy)-4-quinazolinyl]amino}-N-methyl-4-[(trifluoromethyl)oxy] benzenesulfonamide hydrochloride] is 1 to 10 nM.
Take `CNS(=O)(=O)c1ccc(OC(F)(F)F)c(Nc2ncnc3cc(OC)c(OC)c(OC)c23)c1` [Example 55, N-methyl-4-[(trifluoromethyl)oxy]-3-{[5,6,7-tris(methyloxy)-4-quinazolinyl]amino}benzene sulfonamide trifluoroacetate]: the IC50 is 10 to 100 nM.
Next, `CNS(=O)(=O)c1cc(Nc2ncnc3cc(OC)cc(OC)c23)c(N(C)C)cc1F` [Example 56, 5-{[5,7-bis(methyloxy)-4-quinazolinyl]amino}-4-(dimethylamino)-2-fluoro-N-methylbenzenesulfonamide hydrochloride]: 1 to 10 nM.
For the molecule `CNS(=O)(=O)c1cc(Nc2ncnc3cc(OC)c(OC)c(OC)c23)c(OCC(F)(F)F)cc1F` [Example 58, 2-fluoro-N-methyl-4-[(2,2,2-trifluoroethyl)oxy]-5-{[5,6,7-tris(methyloxy)-4-quinazolinyl]amino}benzene sulfonamide trifluoroacetate], the IC50 was 10 to 100 nM.
Next, `CNS(=O)(=O)c1ccc(Cl)c(Nc2ncnc3cc(OC)c(OC)c(OC)c23)c1` [Example 59, 4-chloro-N-methyl-3-{[5,6,7-tris(methyloxy)-4-quinazolinyl]amino}benzene sulfonamide trifluoroacetate]: 10 to 100 nM; `CNS(=O)(=O)c1ccc(OCC(F)(F)F)c(Nc2ncnc3cc(OC)cc(OCCOC)c23)c1` [Example 60, N-methyl-3-[(7-(methyIoxy)-5-{[2-(methyloxy)ethyl]oxy}-4-quinazolinyl)amino]-4-[(2,2,2-trifluoroethyl)oxy]benzene-sulfonamide hydrochloride]: 10 to 100 nM.
Next, `CNS(=O)(=O)c1ccc(OCC(F)(F)F)c(Nc2ncnc3cc(OC)cc(OC4CCOCC4)c23)c1` [Example 61, N-methyl-3-{[7-(methyloxy)-5-(tetrahydro-2H-pyran-4-yloxy)-4-quinazolinyl]amino}-4-[(2,2,2-trifluoroethyl)oxy] benzenesulfonamide]: 10 to 100 nM.
Next, `CNS(=O)(=O)c1ccc(OC(C)C(F)(F)F)c(Nc2ncnc3cc(OC)c(OC)c(OC)c23)c1` (centres unmarked) [Example 62, N-methyl-4-[(2,2,2-trifluoro-1-methylethyl)oxy]-3-{[5,6,7-tris(methyloxy)-4-quinazolinyl]amino}benzene sulfonamide trifluoroacetate]: 1 to 10 nM; `CCOc1cc(OC)cc2ncnc(Nc3cc(S(=O)(=O)NC)ccc3OC(F)(F)F)c12` [Example 64, 3-{[5-(ethyloxy)-7-(methyloxy)-4-quinazolinyl]amino}-N-methyl-4-[(trifluoromethyl)oxy] benzenesulfonamide]: 10 to 100 nM; `CNS(=O)(=O)c1ccc(OC(F)(F)F)c(Nc2ncnc3cc(OC)cc(OC(C)C)c23)c1` [Example 65, N-methyl-3-{[5-[(1-methylethyl)oxy]-7-(methyloxy)-4-quinazolinyl]amino}-4-[(trifluoromethyl)oxy] benzenesulfonamide]: 10 to 100 nM.
`CCOc1cc(OC)cc2ncnc(Nc3cc(S(=O)(=O)NC)ccc3OC(C)C(F)(F)F)c12` (centres unmarked) [Example 66, 3-{[5-(ethyloxy)-7-(methyloxy)-4-quinazolinyl]amino}-N-methyl-4-[(2,2,2-trifluoro-1-methylethyl)oxy] benzenesulfonamide]: the IC50 is 1 to 10 nM.
The figure for `CNS(=O)(=O)c1ccc(OC(C)C(F)(F)F)c(Nc2ncnc3cc(OC)cc(OC(C)C)c23)c1` (centres unmarked) [Example 67, N-methyl-3-{[5-[(1-methylethyl)oxy]-7-(methyloxy)-4-quinazolinyl]amino}-4-[(2,2,2-trifluoro-1-methylethyl)oxy] benzenesulfonamide] is 10 to 100 nM; for `CNS(=O)(=O)c1ccc(S(C)(=O)=O)c(Nc2ncnc3cc(OC)c(OC)cc23)c1` [Example 68, 3-{[6,7-bis(methyloxy)-4-quinazolinyl]amino}-N-methyl-4-(methylsulfonyl) benzenesulfonamide trifluoroacetate] it is 1 to 10 nM and ~3.98 nM.
The figure for `CNS(=O)(=O)c1ccc(OC(C)C(F)(F)F)c(Nc2ncnc3cc(OC)c(OC)cc23)c1` (centres unmarked) [Example 69, 3-{[6,7-bis(methyloxy)-4-quinazolinyl]amino}-N-methyl-4-[(2,2,2-trifluoro-1-methylethyl)oxy] benzenesulfonamide] is 10 to 100 nM; for `CNS(=O)(=O)c1ccc(OCC(F)(F)F)c(Nc2ncnc3cc(OC)c(I)cc23)c1` [Example 70, 3-{[6-iodo-7-(methyloxy)-4-quinazolinyl]amino}-N-methyl-4-[(2,2,2-trifluoroethyl)oxy] benzenesulfonamide] it is 10 to 100 nM; for `CCOc1cc2ncnc(Nc3cc(S(=O)(=O)NC)ccc3OCC(F)(F)F)c2cc1OCC` [Example 71, 3-{[6,7-bis(ethyloxy)-4-quinazolinyl]amino}-N-methyl-4-[(2,2,2-trifluoroethyl)oxy] benzenesulfonamide] it is 1 to 10 nM.
